The subject of this series is B16 tumour cells. The series can be described thus: Tumour challenge, B16 in C57BL/6 mice. It is filed as in vivo, mouse. The note with it: immunised tumour bearing C57BL/6 mice. Here is the method: C57BL/6 were challenged with B16 tumour (parental non-transfected cell line). Four days later the C57BL/6 mice were immunised with Cyk8 8-26 cit peptide. Overall survival (A), tumour volume (B) at day 13 and tumour volume throughout the study (C), post tumour implant are shown for unimmunised control mice and mice immunised with Cyk8 8-26 cit peptide. Statistical differences between immunised and control mice were determined by Mantel-Cox test, p values are shown. The tumour volume medians and p values are shown as determined by Mann Whitney U test, n=10 in all group.
For tumour challenge experiments, mice were challenged with 1×10^5 B16 HHDII/iDP4 cells subcutaneously on the right flank […] before primary immunisation (unless stated otherwise) and then immunised as described above. Tumour growth was monitored at 3-4 days intervals and mice humanely euthanised once tumour reached ≥10 mm in diameter.
The effect of immunisation with Cyk8 8-26 cit on the growth of the mouse B16 melanoma cell line was assessed in C57BL/6. Mice were challenged with B16 tumour cells 3 days prior to immunisation with Cyk8 8-26 cit.

Where a SMILES comes first, the peptide text is derived from it. [ ]: non-standard residue; d: D form. Cit = NC(=O)NCCC[C@H](N)C(=O)O

For the molecule `CC(C)[C@H](NC(=O)[C@H](CCCCN)NC(=O)[C@H](Cc1ccc(O)cc1)NC(=O)[C@H](CO)NC(=O)[C@@H](N)CCCCN)C(=O)N[C@@H](CO)C(=O)N[C@H](C(=O)N[C@@H](CO)C(=O)NCC(=O)N1CCC[C@H]1C(=O)N[C@@H](CCCNC(N)=O)C(=O)N[C@@H](C)C(=O)N[C@@H](Cc1ccccc1)C(=O)N[C@@H](CO)C(=O)N[C@@H](CO)C(=O)N[C@@H](CCCNC(N)=O)C(=O)N[C@@H](CO)C(=O)N[C@@H](Cc1ccc(O)cc1)C(=O)N[C@H](C(=O)O)[C@@H](C)O)[C@@H](C)O` [Cyk8 8-26 cit, KSYKVSTSGP-cit-AFSS-cit-SYT] (H-KSYKVSTSGP[Cit]AFSS[Cit]SYT-OH), the associated toxicity entry is on record as “no associated toxicity”.

The values are drawn from patent US20250269000A1, “ANTI-TUMOUR RESPONSES TO CYTOKERATINS” (SCANCELL LIMITED, priority 2020, published 2025).
